Source: patent US10221139B2, “Inhibitors of histone demethylases” (Gilead Sciences, Inc., priority 2012, dated 2019)

Key:
[1] = target: T1, GASC1 (KDM4C, JMJD2C) (Homo sapiens, UniProt Q9H3R0); experiment: Histone lysine demethylase AlphaLISA assay, GASC1; type: biochemical; details: substrate BK9M3
T1 construct: 1-349; host or cells: E. coli
T1 sequence (Q9H3R0 1-349): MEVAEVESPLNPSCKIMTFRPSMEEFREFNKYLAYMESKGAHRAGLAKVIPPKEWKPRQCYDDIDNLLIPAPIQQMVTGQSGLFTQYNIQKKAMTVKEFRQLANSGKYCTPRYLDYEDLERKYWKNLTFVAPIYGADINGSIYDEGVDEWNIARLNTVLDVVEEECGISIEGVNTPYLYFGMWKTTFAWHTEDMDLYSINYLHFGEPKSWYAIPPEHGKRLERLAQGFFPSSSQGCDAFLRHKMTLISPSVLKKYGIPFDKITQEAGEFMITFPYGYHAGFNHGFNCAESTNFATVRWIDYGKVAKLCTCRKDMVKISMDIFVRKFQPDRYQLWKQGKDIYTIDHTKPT
Procedure: (§1) Example 2: Histone Lysine Demethylase AlphaLISA Assays for IC50 Value Determination
(§2) Assays are performed analogously to the protocol described by Perkin Elmer (Roy et al. Perkin Elmer Technical Note: AlphaLISA #12, April 2011).
(§3) Enzymes are dissolved in enzyme buffer and incubated for 10 min before 5 μL is added to 5 μL 3% DMSO solutions of compounds in enzyme buffer. Incubated for another 10 minutes, before 5 μL substrate solution is added and the reaction mixture is incubated at room temperature for the given period. 10 μL acceptor beads, suspended at given dilutions in Epigenetic Buffer (Perkin Elmer AL008) from stock, are added and the suspension is incubated 60 minutes in the dark at room temperature, before 10 μL suspension (at the given dilutions in Epigenetic Buffer) of streptavidin donor beads (Perkin Elmer 6760002) in Epigenetic Buffer is added. After incubation at room temperature in the dark the plates are read. Reaction conditions are seen in Table 2b.

[2] = target: T2, UTX (KDM6A) (Homo sapiens, UniProt O15550); experiment: Histone lysine demethylase AlphaLISA assay, UTX; type: biochemical; details: substrate BK27M3
T2 construct: 919-1401; host or cells: E. coli
T2 sequence (O15550 919-1401): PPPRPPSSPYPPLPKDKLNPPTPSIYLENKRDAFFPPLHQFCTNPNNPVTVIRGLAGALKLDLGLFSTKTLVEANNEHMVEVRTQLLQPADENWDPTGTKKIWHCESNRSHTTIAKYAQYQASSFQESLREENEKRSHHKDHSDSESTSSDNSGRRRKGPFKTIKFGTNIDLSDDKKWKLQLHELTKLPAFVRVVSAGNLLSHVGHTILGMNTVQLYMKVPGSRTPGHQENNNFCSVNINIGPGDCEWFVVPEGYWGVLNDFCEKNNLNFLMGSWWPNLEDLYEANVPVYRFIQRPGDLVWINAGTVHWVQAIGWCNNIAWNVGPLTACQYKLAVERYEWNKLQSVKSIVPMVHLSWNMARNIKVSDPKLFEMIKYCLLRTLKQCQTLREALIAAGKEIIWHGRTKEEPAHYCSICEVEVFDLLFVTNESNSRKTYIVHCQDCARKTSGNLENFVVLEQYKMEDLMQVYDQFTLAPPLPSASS
Procedure: as §1, §2, §3

[3] = target: T3, PLU1 (KDM5B) (Homo sapiens, UniProt Q9UGL1); experiment: Histone lysine demethylase AlphaLISA assay, PLU1; type: biochemical; details: substrate H3K4M3B
T3 construct: 1-809; host or cells: E. coli
T3 sequence (Q9UGL1 1-809): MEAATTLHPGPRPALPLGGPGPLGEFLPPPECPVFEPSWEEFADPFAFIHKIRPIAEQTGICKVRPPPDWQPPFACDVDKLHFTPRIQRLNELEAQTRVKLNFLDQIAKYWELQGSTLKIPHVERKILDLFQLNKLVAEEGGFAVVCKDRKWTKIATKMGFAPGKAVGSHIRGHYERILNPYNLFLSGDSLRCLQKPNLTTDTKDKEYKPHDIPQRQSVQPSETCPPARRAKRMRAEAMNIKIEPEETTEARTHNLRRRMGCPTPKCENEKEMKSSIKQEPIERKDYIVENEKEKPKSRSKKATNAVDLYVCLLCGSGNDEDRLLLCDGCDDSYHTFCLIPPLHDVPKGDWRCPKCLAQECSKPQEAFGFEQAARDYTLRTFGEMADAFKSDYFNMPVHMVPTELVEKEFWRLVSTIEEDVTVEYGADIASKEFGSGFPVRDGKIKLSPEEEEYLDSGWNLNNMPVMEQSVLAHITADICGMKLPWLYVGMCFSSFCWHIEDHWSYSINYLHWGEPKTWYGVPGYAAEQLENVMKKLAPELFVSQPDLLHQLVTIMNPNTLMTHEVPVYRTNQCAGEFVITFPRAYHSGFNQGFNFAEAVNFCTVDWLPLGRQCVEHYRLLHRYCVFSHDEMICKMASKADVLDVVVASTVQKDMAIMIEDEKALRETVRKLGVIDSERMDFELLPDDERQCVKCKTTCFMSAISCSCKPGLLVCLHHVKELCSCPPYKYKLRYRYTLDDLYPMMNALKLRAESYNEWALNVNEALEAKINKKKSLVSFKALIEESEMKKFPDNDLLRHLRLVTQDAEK
Procedure: as §1, §2, §3

[4] = system: MCF7 cells; experiment: MCF7 cell proliferation assay (ATPlite); type: cell-based; details: Homo sapiens, 120 hours
Procedure: MCF7 cells were seeded at 1250 cells/well in 50 μl medium/well in black 96 well plates. Cells were incubated for 24 hours before addition of compound. Compounds were diluted in complete medium (50 μl/well) and added to the plates in duplicates. The total volume of medium in the wells was 100 μl, and the final concentration of DMSO 0.5%. Complete medium used was DMEM with GlutaMAX containing 10% FBS and pen/strep.
120 hours after addition of compounds, the plates were harvested and analyzed by ATPlite 1 Step (Perkin Elmer, cat no 6016739) according to the manufactures recommendation. Briefly, 100 μl ATP lite solution was added to each well, plates were vortexed at 700 rpm 2 minutes, followed by 20 minutes incubation in the dark, and then analyzed for luminescence on EnSpire 2300 Mulitilabel reader (Perkin Elmer). EC50 values were calculated using GraphPad Prism 6.

| Compound | IC50 [1] [nM] | IC50 [2] [nM] | IC50 [3] [nM] | EC50 [4] [nM] |
| --- | --- | --- | --- | --- |
| CCOC(=O)c1ccnc(CNCC(=O)N(CC)CCN(C)C)c1 [#65, ethyl 2-{[({[2-(dimethylamino)ethyl](ethyl)carbamoyl}methyl)amino]methyl}pyridine-4-carboxylate] | 100 to 1000 | < 100 | 100 to 1000 | – |
| C=CC(CCNC(=O)C(F)(F)F)OC(=O)c1ccnc(CNCC(=O)N(CC)CCN(C)C)c1 (stereo not drawn) [#66, 5-(trifluoroacetamido)pent-1-en-3-yl 2-{[({[2-(dimethylamino)ethyl](ethyl)carbamoyl}methyl)amino]methyl}pyridine-4-carboxylate] | 100 to 1000 | < 100 | 100 to 1000 | – |
| C=CC(CCN(C)C(=O)C(F)(F)F)OC(=O)c1ccnc(CNCC(=O)N(CC)CCN(C)C)c1 (stereo not drawn) [#67, 5-(2,2,2-trifluoro-N-methylacetamido)pent-1-en-3-yl 2-{[({[2-(dimethylamino)ethyl](ethyl)carbamoyl}methyl)amino]methyl}pyridine-4-carboxylate] | 100 to 1000 | < 100 | 100 to 1000 | – |
| CCCCCCCCCCCCCCCC(=O)OCC(COC(=O)c1ccnc(CNCC(=O)N(CC)CCN(C)C)c1)OC(=O)CCCCCCCCCCCCCCC (stereo not drawn) [#69, 1-(2-{[({[2-(dimethylamino)ethyl](ethyl)carbamoyl}methyl)amino]methyl}pyridine-4-carbonyloxy)-3-(hexadecanoyloxy)propan-2-yl hexadecanoate] | 100 to 1000 | < 100 | 100 to 1000 | – |
| CCN(CCN(C)C)C(=O)CNCc1cc(C(=O)Nc2nccn2C)ccn1 [#89, 2-{[({[2-(dimethylamino)ethyl](ethyl)carbamoyl}methyl)amino]methyl}-N-(1-methyl-1H-imidazol-2-yl)pyridine-4-carboxamide] | 100 to 1000 | < 100 | < 100 | – |
| COc1ccccc1CN1CCC(NC(=O)CNCc2cc(C(=O)O)ccn2)CC1 [drawing 262] | – | – | – | 1000 to 50000 |
| CCN(CCC#N)C(=O)CNCc1cc(C(=O)O)ccn1 [drawing 263, 2-[({[(2-cyanoethyl)(ethyl)carbamoyl]methyl}amino)methyl]pyridine-4-carboxylic acid] | – | – | – | 1000 to 50000 |
| CN(CCCNCc1cc(C(=O)O)ccn1)Cc1ccccc1F [drawing 264, 2-{[(3-{[(2-fluorophenyl)methyl](methyl)amino}propyl)amino]methyl}pyridine-4-carboxylic acid] | – | – | – | 1000 to 50000 |
| O=C(O)c1ccnc(CNCCCN2CCC(Cc3ccccc3)CC2)c1 [drawing 265, 2-({[3-(4-benzylpiperidin-1-yl)propyl]amino}methyl)pyridine-4-carboxylic acid] | – | – | – | 1000 to 50000 |
| O=C(O)c1ccnc(CNCCCNCCOc2ccccc2)c1 [drawing 266, 2-[({3-[(2-phenoxyethyl)amino]propyl}amino)methyl] pyridine-4-carboxylic acid] | – | – | – | 1000 to 50000 |
| CN(CCCCN(Cc1ccccc1)C1CC1)C(=O)CNCc1cc(C(=O)O)ccn1 [drawing 267, 2-({[({4-[benzyl(cyclopropyl)amino]butyl)(methyl)carbamoyl)methyl]amino}methyl)pyridine-4-carboxylic acid] | – | – | – | > 50000 |
| CCN(CCN(C)C)C(=O)CNCc1cc(C(=O)O)ccn1 [drawing 268, 2-{[({[2-(dimethylamino)ethyl](ethyl)carbamoyl}methyl)amino]methyl}pyridine-4-carboxylic acid] | – | – | – | 1000 to 50000 |
| CCN(CC)CCCCNCc1cc(C(=O)OCCCN(C)C)ccn1 [drawing 271, 3-(dimethylamino)propyl 2-({[4-(diethylamino)butyl]amino}methyl)pyridine-4-carboxylate] | – | – | – | 1000 to 50000 |
| CCOC(=O)Nc1ccc(COC(=O)c2ccnc(CNCCCCN(CC)CC)c2)cc1 [drawing 272, {4-[(ethoxycarbonyl)amino]phenyl}methyl 2-({[4-(diethylamino)butyl]amino}methyl)pyridine-4-carboxylate] | – | – | – | 1000 to 50000 |
| CCN(CCN(C)C)C(=O)CNCc1cc(C(=O)Oc2ccc(OC)cc2)ccn1 [drawing 275, 4-methoxyphenyl 2-{[({[2-(dimethylamino)ethyl](ethyl)carbamoyl}methyl)amino]methyl}pyridine-4-carboxylate] | – | – | – | 1000 to 50000 |
| CCOC(=O)c1ccccc1OC(=O)c1ccnc(CNCC(=O)N(CC)CCN(C)C)c1 [drawing 276, 2-(ethoxycarbonyl)phenyl 2-{[({[2-(dimethylamino)ethyl](ethyl)carbamoyl}methyl)amino]methyl}pyridine-4-carboxylate] | – | – | – | 1000 to 50000 |
| {4-[(ethoxycarbonyl)amino]phenyl}methyl 2-({[4-(diethylamino)butyl]amino}methyl)pyridine-4-carboxylate [#55] | 100 to 1000 | ≥ 1000 | < 100 | – |

The next lines start with the values.

| IC50 [1] [nM] | IC50 [2] [nM] | IC50 [3] [nM] | EC50 [4] [nM] | Compound |
| --- | --- | --- | --- | --- |
| – | – | – | 1000 to 50000 | O=C(O)c1ccnc(CNCC2CC2)c1 [drawing 257, 2-{[(cyclopropylmethyl)amino]methyl}pyridine-4-carboxylic acid] |
| – | – | – | 1000 to 50000 | CSCCNCc1cc(C(=O)O)ccn1 [drawing 258, 2-({[2-(methylsulfanyl)ethyl]amino}methyl)pyridine-4-carboxylic acid] |
| – | – | – | 1000 to 50000 | Cn1c(CNCc2cc(C(=O)O)ccn2)nc2ccccc21 [drawing 259] |
| – | – | – | 1000 to 50000 | C=CCN(CC=C)C(=O)CNCc1cc(C(=O)O)ccn1 [drawing 260, 2-[({[bis(prop-2-en-1-yl)carbamoyl]methyl}amino)methyl]pyridine-4-carboxylic acid] |
| – | – | – | 1000 to 50000 | CN(CCCc1nccn1C)C(=O)CNCc1cc(C(=O)O)ccn1 [drawing 261, 2-{[({methyl[3-(1-methyl-1H-imidazol-2-yl)propyl]carbamoyl}methyl)amino]methyl} pyridine-4-carboxylic acid] |
| – | – | – | < 1000 | CCN(CC)CCCCNCc1cc(C(=O)Oc2ccc(OC)cc2)ccn1 [drawing 269, 4-methoxyphenyl 2-({[4-(diethylamino)butyl]amino}methyl)pyridine-4-carboxylate] |
| – | – | – | < 1000 | CCOC(=O)c1ccccc1OC(=O)c1ccnc(CNCCCCN(CC)CC)c1 [drawing 270, 2-(ethoxycarbonyl)phenyl 2-({[4-(diethylamino)butyl]amino}methyl)pyridine-4-carboxylate] |
| – | – | – | < 1000 | CCN(CC)CCCCNCc1cc(C(=O)Oc2c(OC)cccc2OC)ccn1 [drawing 273, 2,6-dimethoxyphenyl 2-({[4-(diethylamino)butyl]amino}methyl)pyridine-4-carboxylate] |
| – | – | – | < 1000 | CCN(CC)CCCCNCc1cc(C(=O)Oc2c(C)cccc2C)ccn1 [drawing 274, 2,6-dimethylphenyl 2-({[4-(diethylamino)butyl]amino}methyl)pyridine-4-carboxylate] |
| – | – | – | < 1000 | CCOC(=O)N(C)c1ccc(COC(=O)c2ccnc(CNCCCCN(CC)CC)c2)cc1 [drawing 277, {4-[(ethoxycarbonyl)(methyl)amino]phenyl}methyl 2-({[4-(diethylamino)butyl]amino}methyl)pyridine-4-carboxylate] |
